Data taken from patent US8222260B2, “Substituted 6-anilinopurine derivatives as inhibitors of cytokinin oxidase/dehydrogenase and preparations containing these derivatives” (Univerzita Palackego V Olomouci, priority 2007, dated 2012).
“And” between values parts separate entries of the source, which are not always exact repeats. Identical values can stand only once.

Tests used:
[1] = system: Human diploid fibroblasts HCA; experiment: Anti-aging activity: senescence-associated beta-galactosidase in human fibroblasts; type: cell-based; details: for Senescent Cells (%) HCA passage 25: passage 25, cells expressing senescence-associated beta-galactosidase; for Senescent Cells (%) HCA passage 50: passage 50, cells expressing senescence-associated beta-galactosidase; for Senescent Cells (%) HCA passage 80: passage 80, cells expressing senescence-associated beta-galactosidase
Method: In this example, effects of the compounds of this invention on the activity of a senescence biomarker senescence-associated β-galactosidase was studied. Human diploid fibroblasts HCA of various passage levels were used for this purpose. The tested compounds were added to the medium at each passage. After the incubation period, cells were washed with PBS and fixed with 2% formaldehyde and 0.2% glutaraldehyde in PBS. After another wash with PBS, they were incubated with the staining solution comprising potassium ferricyanide (5 mM), potassium ferrocyanide (5 mM), MgCl2 (2 mM), X-gal (5-bromo-4-chloro-3-indolyl-β-D-galactopyranoside) (1 mg/ml), in citric/phosphate buffer (pH 6.0) at 37° C. (without CO2) for at least 1 hour. Following the incubation period, the numbers of cells expressing senescence-associated β-galactosidase (blue cells) were counted using light microscope.

[2] = system: cytokinin-dependent tobacco callus Nicotiana tabacum L. cv. Wisconsin 38; experiment: Tobacco callus biotest (plant cell division); type: cell-based; details: for Activity (%) [10^−5 mol · l^−1 K = 100%]: at the concentration with highest activity, relative to 10^−5 M kinetin
Method: The stimulatory effect of the newly prepared derivatives was tested in the calus biotest using cytokinin-dependent tobacco callus. Cytokinin-dependent tobacco callus Nicotiana tabacum L. cv. Wisconsin 38 was maintained at 25° C. in darkness on modified Murashige-Skoog medium, containing per 1 liter: 4 μmol of nicotinic acid, 2.4 μmol of pyridoxine hydrochloride, 1.2 μmol of thiamine, 26.6 μmol of glycine, 1.37 μmol of glutamine, 1.8 μmol of myo-inositol, 30 g of sucrose, 8 g of agar, 5.37 μmol of NAA and 0.5 μmol of 6-benzylaminopurine. Subcultivation was carried out every three weeks. Fourteen days before the bioassay, the callus tissue was transferred to the media without 6-benzylaminopurine. The biological activity was determined from the increase of the fresh callus weight after four weeks of cultivation. Five replicates were prepared for each concentration of the compound tested and the entire test was repeated twice. […] The compounds to be tested were dissolved in dimethylsulfoxide (DMSO) and the solution brought up to 10^−3 M with distilled water.
From the obtained data, the concentration with the highest activity was selected for each compound tested. Relative activity of the compound at this concentration was calculated (Table 11). The activity obtained for 10^−5 M of the control substance kinetin (K) was postulated as 100%.

[3] = system: Amaranthus caudatus cotyledon/hypocotyl explants; experiment: Amaranthus bioassay (betacyanin content); type: cell-based, Amaranthus caudatus var. atropurpurea; details: for Activity (%) [10^−5 mol · l^−1 K = 100%]: at the concentration with highest activity, relative to 10^−5 M kinetin
Method: The standard Amaranthus bioassay was performed with the following modifications. The seeds of Amaranthus caudatus var. atropurpurea were surface-sterilised in 10% (w/v) N-chlorobenzenesulfonamide for 10 min and washed 5 times with deionized water. They were placed in 15 cm Petri dishes containing paper tissues saturated with deionized water. After 72 h of cultivation at 25° C. in darkness, the roots of the seedlings were cut off. The explants, consisting of two cotyledons and hypocotyls, were placed in 5 cm Petri dishes onto two layers of filtration paper soaked with 1 ml of the incubation medium containing 10 μmol of Na2HPO4—KH2PO4, pH 6.8, 5 μmol of tyrosine and the compound to be tested. There were 20 explants per dish. The procedure was carried out under green safe light in a darkroom. After 48 h of incubation at 25° C. in darkness, betacyanin was extracted by freezing the explants in 4 ml 3.33 μM acetic acid. The concentration of betacyanin was determined from the absorbances at 537 nm and 620 nm as follows: ΔA=A537nm−A620nm. The values ΔA were plotted against the concentration tested, are means of five replicates and the entire test was repeated at least twice. […] The compounds to be tested were dissolved in dimethylsulfoxide (DMSO) and the solution brought up to 10^−3M with distilled water.
From the obtained data, the concentration with the highest activity was selected for each compound tested. Relative activity of the compound at this concentration was calculated (Tab. 12). The activity obtained for 10^−5 M kinetin (K) was postulated as 100%.

[4] = biological target: T1, AHK3 (Arabidopsis thaliana, UniProt Q9C5U1); experiment: Activation of cytokinin receptors (E. coli KMI001 beta-galactosidase reporter); type: cell-based; details: 28 h incubation; n.a. means no activation
T1 sequence (Q9C5U1 1-1036): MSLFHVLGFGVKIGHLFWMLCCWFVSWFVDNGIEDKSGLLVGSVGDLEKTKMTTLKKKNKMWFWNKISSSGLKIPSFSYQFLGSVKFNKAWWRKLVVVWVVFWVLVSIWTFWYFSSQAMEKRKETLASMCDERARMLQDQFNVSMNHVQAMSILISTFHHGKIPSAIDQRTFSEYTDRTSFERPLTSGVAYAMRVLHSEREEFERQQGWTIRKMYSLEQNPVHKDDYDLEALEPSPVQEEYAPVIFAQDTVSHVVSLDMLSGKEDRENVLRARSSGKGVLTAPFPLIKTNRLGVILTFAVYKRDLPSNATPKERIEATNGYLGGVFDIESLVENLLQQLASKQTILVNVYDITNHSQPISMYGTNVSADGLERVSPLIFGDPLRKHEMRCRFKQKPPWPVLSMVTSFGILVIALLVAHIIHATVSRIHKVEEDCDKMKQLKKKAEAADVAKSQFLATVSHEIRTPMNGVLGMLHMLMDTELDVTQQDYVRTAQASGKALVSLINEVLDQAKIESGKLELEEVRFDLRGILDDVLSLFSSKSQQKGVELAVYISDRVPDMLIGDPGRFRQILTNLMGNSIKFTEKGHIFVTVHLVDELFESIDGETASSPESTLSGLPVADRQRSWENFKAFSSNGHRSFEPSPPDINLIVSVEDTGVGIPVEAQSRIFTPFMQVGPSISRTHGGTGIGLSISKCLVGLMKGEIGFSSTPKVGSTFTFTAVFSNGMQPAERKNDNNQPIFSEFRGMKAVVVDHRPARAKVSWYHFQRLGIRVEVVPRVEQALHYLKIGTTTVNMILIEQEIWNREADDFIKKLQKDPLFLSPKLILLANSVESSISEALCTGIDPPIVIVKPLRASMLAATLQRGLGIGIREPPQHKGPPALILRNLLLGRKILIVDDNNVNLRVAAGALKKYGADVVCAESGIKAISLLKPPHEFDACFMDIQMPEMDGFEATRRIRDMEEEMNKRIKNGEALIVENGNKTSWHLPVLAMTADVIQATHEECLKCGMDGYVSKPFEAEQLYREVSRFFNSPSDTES
Method: Escherichia coli strains KMI001 harbouring the plasmid […]4 or […]3 were grown overnight at 25° C. in M9 media enriched with 0.1% casamino acids to OD600 1. The preculture was diluted 1:600 in 1 ml M9 medium containing 0.1% casamino acids and 1 μl stock solution of either the tested compound (10^-7 M-5×10^-5 M) or solvent control (DMSO, ethanol, methanol) were added. The cultures were further grown at 25° C. in microtiter plate, 200 μl per well. […] The cultures were centrifuged and 50 μl aliquots of the supernatant were transferred to microtiter plate containing 2 μl 150 mM 4-methyl umbelliferyl galactoside which was subsequently incubated for 1 h at 37° C. The reaction was stopped by adding 100 μl 0.2 M Na2CO3. […] The EC50 value, the compound concentration activating the receptor to 50%, was calculated from the obtained dose response curves. The values shown in Table 10 are means of three replicates and the entire test was repeated at least twice.

Compound	Senescent Cells (%) HCA passage 25 [1] [%]	Senescent Cells (%) HCA passage 50 [1] [%]	Senescent Cells (%) HCA passage 80 [1] [%]	Activity (%) [10^−5 mol · l^−1 K = 100%] [3]	EC50 [4] [µM]	further results
COc1cc(Nc2nc(Cl)nc3nc[nH]c23)ccc1O	4	6				
COc1cccc(Nc2nc(N)nc3nc[nH]c23)c1 [2-amino-6-(3-methoxyanilino)purine]	4	4	22			
Nc1nc(Nc2ccc(O)cc2)c2nc[nH]c2n1 [2-amino-(4-hydroanilino)purine]	3	4	21			
Nc1nc(Nc2ccc(O)cc2)c2[nH]cnc2n1 [2-amino-(4-hydroxyanilino)purine]	4	4	18			
COc1cccc(Nc2nc(Cl)nc3nc[nH]c23)c1 [2-chloro-6-(3-methoxyanilino)purine]	5	5	24			
COc1ccc(Nc2nc(Cl)nc3nc[nH]c23)cc1 [2-chloro-6-(4-methoxyanilino)purine]	4	3	26			
COc1cccc(Nc2nc(F)nc3nc[nH]c23)c1 [2-fluoro-6-(3-methoxyanilino)purine]	3	5	29			
Oc1ccc(Nc2nc(F)nc3nc[nH]c23)cc1 [2-fluoro-6-(4-hydroxyanilino)purine]	3	4	18			
CSc1nc(Nc2ccc(O)cc2)c2[nH]cnc2n1 [2-methylthio-6-(4-hydroxyanilino)purine]	4	6	34			
Fc1ccc(Nc2nc(Cl)nc3[nH]cnc23)cc1 [Compound 7]				104%		Activity (%) [10^−5 mol · l^−1 K = 100%] [2]: 112%
COc1ccccc1Nc1nc(Cl)nc2nc[nH]c12 [Compound 11]				110.3% and 121.7%		Activity (%) [10^−5 mol · l^−1 K = 100%] [2]: 109%; concentration with highest activity ([2]; fresh weight after four weeks): 10^−5 mol · l^−1; concentration with highest activity ([3]; 48 h): 10^−5 mol · l^−1
COc1ccc(Nc2nc(Cl)nc3[nH]cnc23)cc1 [Compound 13]					33.1	
Fc1ccc(Nc2nc(F)nc3[nH]cnc23)cc1 [Compound 46]				109%	22.5	Activity (%) [10^−5 mol · l^−1 K = 100%] [2]: 110.7%
COc1ccc(Nc2nc(F)nc3[nH]cnc23)cc1 [Compound 52]					18.9	Activity (%) [10^−5 mol · l^−1 K = 100%] [2]: 105%
Nc1nc(Nc2ccc(Cl)cc2)c2nc[nH]c2n1 [Compound 67]				141.7%	8.1	
Nc1nc(Nc2ccc(F)cc2)c2nc[nH]c2n1 [Compound 70]				136%	19.5	
COc1ccccc1Nc1nc(N)nc2[nH]cnc12 [Compound 74]				108%	29	
COc1ccc(Nc2nc(N)nc3[nH]cnc23)cc1 [Compound 76]					26.3	
Sc1nc(Nc2ccc(Cl)cc2)c2nc[nH]c2n1 [Compound 81]				122.9%	10.2	Activity (%) [10^−5 mol · l^−1 K = 100%] [2]: 115.7%
